Literature values as cited in US20110066230A1, “Fluorinated GHRH Antagonists” (priority 2009, published 2011).

Key:
[1] = target: T1, pituitary receptors (Homo sapiens, UniProt Q02643); conditions: biological activity on the pituitary
T1 sequence (Q02643 23-423): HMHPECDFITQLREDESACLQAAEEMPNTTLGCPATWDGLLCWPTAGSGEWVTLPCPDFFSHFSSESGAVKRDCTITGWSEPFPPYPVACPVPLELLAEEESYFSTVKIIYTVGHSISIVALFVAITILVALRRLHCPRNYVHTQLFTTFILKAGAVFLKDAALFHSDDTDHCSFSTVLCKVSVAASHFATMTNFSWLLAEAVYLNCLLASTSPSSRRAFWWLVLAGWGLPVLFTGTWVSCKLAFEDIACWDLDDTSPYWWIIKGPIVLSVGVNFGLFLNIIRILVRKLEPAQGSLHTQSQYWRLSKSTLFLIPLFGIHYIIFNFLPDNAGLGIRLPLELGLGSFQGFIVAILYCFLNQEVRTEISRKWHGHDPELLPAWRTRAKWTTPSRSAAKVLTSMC

[2] = tested on: GH secretion
[3] = tested on: rat anterior pituitary adenylate cyclase
[4] = normal subjects, large doses (400 μg/kg)

Row | Substance | potency retained relative to native GH-RH [1] [%] | GH levels ([2]; a patient with acromegaly) | nocturnal GH secretion [2, 4] | response to GH-RH [2, 4] | activation of rat anterior pituitary adenylate cyclase by hGH-RH(1-29)NH2 [3]
1 | Tyr-Ala-Asp-Ala-Ile^5-Phe-Thr-Asn-Ser-Tyr^10-Arg-Lys-Val-Leu-Gly^15-Gln-Leu-Ser-Ala-Arg^20-Lys-Leu-Leu-Gln-Asp^25-Ile-Met-Ser-Arg^29-NH2 [GH-RH(1-29)] | ≥ 50 |  |  |  | 
2 | [Ac-Tyr^1,D-Arg^2]hGH-RH(1-29)NH2 [standard antagonist] |  | reduced GH levels | eliminated nocturnal GH secretion | inhibited the response to GH-RH | prevent the activation
